Among the data in the supplement of paper PMC4862054 are drug sensitivity score and normalised viability values, retold here.

SMILES strings stand for the structures. Where “and” joins values, the source holds several entries; their conditions need not be identical. Identical values can stand only once.

The test system of assay [1] is HDQ-P1. Put plainly: drug sensitivity score (DSS), CellTiter-Glo (DSS (AUC-based score)); higher = stronger drug effect (viability inhibition or cytotoxicity); extreme values may be limits of the assay. The following applies: incubation time: 72 h. In outline:
(§1)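 The area under the fitted dose-response curve was used to calculate the drug sensitivity score. Cells from breast cancer lines were incubated for 72 h in 384-well plates with compound at 5 concentrations spaced 10-fold over a 10,000-fold range specific to each compound. Plates were read for CellTox Green and then CellTiter-Glo, and normalised to 0.1 % DMSO and a positive kill control.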
(In general: In ATP-based viability assays light output follows the ATP content of the culture.)

The subject of assay [2] is BT-474. The description is as above. The note with it: incubation time: 72 h. In outline:
as §1

The test system of assay [3] is MCF-10A. The assay is described as above. The following applies: incubation time: 72 h. In short, it runs like this: as §1
In assay [4] the test system is MDA-MB-468. The description is as above. The following applies: incubation time: 72 h. In outline:
as §1

The test system of assay [5] is MDA-MB-453. Described as above. The note with it: incubation time: 72 h. In outline:
as §1

Assay [6] has as its system Hs578T. The assay is described as above. The following applies: incubation time: 72 h. In outline: as §1
Assay [7] has as its system MFM-223. Put plainly: normalised viability (% of control), CellTiter-Blue; higher = more viable cells (about 100 = DMSO control). The following applies: incubation time: 72 h. In outline: (§2)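 Vehicle (100) and a positive kill control (0) anchored the normalisation of each plate, and Z'-factor was used for quality control. Breast cancer cell lines in 20 µl suspension were incubated 72 h over compound in 5 µl medium in 384-well plates, followed by CellTiter-Blue at 560/590 nm. The value is normalised viability at a single listed concentration of the series.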
For orientation: The colour change of resazurin is a common sign of viable cells or microbes.

The subject of assay [8] is HDQ-P1. The assay is described as above. The note with it: incubation time: 72 h. In short, it runs like this:
as §2

Assay [9] deals with HCC1599. The description is as above. The following applies: incubation time: 72 h. In outline:
as §2

The subject of assay [10] is BT-474. The description is as above. The note with it: incubation time: 72 h. In outline: as §2
In assay [11] the test system is CAL-120. The description is as above. The following applies: incubation time: 72 h. In short, it runs like this: as §2
Assay [12] has as its system DU-4475. The assay is described as above. The following applies: incubation time: 72 h. In short, it runs like this:
as §2

Assay [13] relates to MDA-MB-231. Described as above. The following applies: 100 nM; incubation time: 72 h. In outline: as §2
Assay [14] relates to CAL-148. The assay is described as above. The note with it: incubation time: 72 h. In short, it runs like this: as §2
Assay [15] deals with HCC1937. Described as above. The note with it: incubation time: 72 h. In outline: as §2
In assay [16] the test system is MDA-MB-468. The assay is described as above. The following applies: incubation time: 72 h. In outline: as §2
Assay [17] relates to HCC1143. The assay is described as above. The following applies: 100 nM; incubation time: 72 h. In short, it runs like this: as §2
The subject of assay [18] is MDA-MB-453. The description is as above. The note with it: incubation time: 72 h. In outline:
as §2

Assay [19] has as its system Hs578T. The assay is described as above. The following applies: incubation time: 72 h. In outline:
as §2

Assay [20] relates to CAL-51. The assay is described as above. The following applies: incubation time: 72 h. In outline: as §2
The test system of assay [21] is MDA-MB-436. The description is as above. The following applies: incubation time: 72 h. In short, it runs like this:
as §2

For assay [22], the system named is CAL-85-1. Described as above. The note with it: incubation time: 72 h. In outline:
as §2

Assay [23] has as its system BT-549. The assay is described as above. The note with it: incubation time: 72 h. In short, it runs like this:
as §2

Assay [24] has as its system SK-BR-3. The description is as above. The following applies: incubation time: 72 h. In outline: as §2
Assay [25] concerns HDQ-P1. Description: normalised viability (% of control), CellTiter-Blue; higher = more viable cells (about 100 = DMSO control). The following applies: incubation time: 72 h. The method, then:
(§3)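 DSRT, CellTiter-Blue viability, 72 h incubation. Signal is normalised to DMSO and benzethonium chloride controls. Value is the normalised response at dose 8.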
This is another data set of the same source.

Assay [26] deals with DU-4475. The assay is described as above. The note with it: incubation time: 72 h. The protocol:
as §3
The source holds these as a separate data set.

Assay [27] has as its system CAL-148. Described as above. The following applies: incubation time: 72 h. The method, then:
as §3
This is another data set of the same source.

The subject of assay [28] is MDA-MB-453. The description is as above. The note with it: incubation time: 72 h. The method, then:
as §3
The source holds these as a separate data set.

Assay [29] deals with CAL-51. The description is as above. The note with it: incubation time: 72 h. The method, then:
as §3
The source holds these as a separate data set.

For assay [30], the system named is CAL-85-1. Described as above. The following applies: incubation time: 72 h. The protocol:
as §3
This is another data set of the same source.

Take `Nc1ncnc2c1c(COc1cccc(Cl)c1)nn2C1CCOCC1`: the drug sensitivity score in assay [1], in assay [2], in [3], in [4], in assay [5] and in assay [6] was 0 in each case.

Consider `Cc1cc2c(C(C)C)c(O)c(O)c(C=O)c2c(O)c1-c1c(C)cc2c(C(C)C)c(O)c(O)c(C=O)c2c1O` [Gossypol], for which the normalised viability in assay [7] (100 nM) worked out at 105%; in [8] (30 nM) it was 139%; in assay [9] (100 nM) it was 87.6%; in assay [10] (100 nM), 115%; in [11] (100 nM), 109%; in assay [12] (30 nM), 94.1%. Besides, the normalised viability stood at 94.1% in [13]; 94.2% in [14] (30 nM); 116% in assay [15] (100 nM); 101% in [16] (100 nM); 115% in assay [17]; 106% in assay [18] (30 nM). In addition, the normalised viability is 137% in [19] (100 nM); 97.1% in [20] (30 nM); 106% in [21] (100 nM); 101% in assay [22] (30 nM); 114% in [23] (100 nM); 106% in assay [24] (100 nM). Further, the normalised viability in assay [25] (30000 nM) worked out at 4.62%; in assay [26] (30000 nM), 4.25%; in [27] (30000 nM) it was 7.03%; in assay [28] (30000 nM), 5.68%; in assay [29] (30000 nM), 3.25%; in assay [30] (30000 nM), 5.42%.

Turning to `CC(C)c1c(C(=O)Nc2ccccc2)c(-c2ccccc2)c(-c2ccc(F)cc2)n1CC[C@@H](O)C[C@@H](O)CC(=O)O` [Atorvastatin], the drug sensitivity score was determined as 5.79 in [1]; 8.43 in assay [2]; 7.2 in assay [3]; 4.08 in assay [4]; 0.00416 in assay [5]; 1.59 in assay [6].

Turning to `CO[C@H]1C[C@@H]2CC[C@@H](C)[C@@](O)(O2)C(=O)C(=O)N2CCCC[C@H]2C(=O)O[C@H]([C@H](C)C[C@@H]2CC[C@@H](OCCO)[C@H](OC)C2)CC(=O)[C@H](C)/C=C(\C)[C@@H](O)[C@@H](OC)C(=O)[C@H](C)C[C@H](C)/C=C/C=C/C=C/1C` [Everolimus], the normalised viability was 55.5% and 51.7% in assay [7] (1 nM); 84.7% and 79.8% in assay [8] (0.3 nM); 107% and 111% in assay [9] (1 nM); 76.6% and 65.5% in [10] (1 nM); 59.3% and 51.9% in assay [11] (1 nM); 86.3% and 104% in assay [12] (0.3 nM). Besides, the normalised viability in assay [14] (0.3 nM) is 77.8% and 72.2%; in assay [15] (1 nM) it was 52.2% and 56.6%; in [16] (1 nM), 72% and 74.4%; in [18] (0.3 nM), 71.9% and 70%; in [19] (1 nM), 61% and 59.5%; in assay [20] (0.3 nM) it was 89.6% and 89.8%. Besides, the normalised viability is 87.7% and 75.2% in assay [21] (1 nM); 73.8% and 72% in [22] (0.3 nM); 64.4% and 54.3% in [23] (1 nM); 80.9% and 64.3% in [24] (1 nM); 72.9% and 72.6% in [25] (300 nM); 60.9% and 62.6% in assay [26] (300 nM). Moreover, the normalised viability in [27] (300 nM) is 39% and 37.2%; in [28] (300 nM) it was 28.7% and 29.6%; in assay [29] (300 nM) it was 40.4% and 43.4%; in assay [30] (300 nM), 57% and 52.9%. Further, the drug sensitivity score in assay [1] came to 3.41; in assay [2] it was 3.02; in assay [3], 0; in assay [4], 16; in assay [5], 10; in assay [6], 9.44.

For the compound `Cn1c(=O)n(-c2ccc(C(C)(C)C#N)cc2)c2c3cc(-c4cnc5ccccc5c4)ccc3ncc21` [Dactolisib], the drug sensitivity score in [1] was determined as 10.7; in assay [2], 9.24; in assay [3], 9.78; in assay [4], 13.2; in assay [5], 14.7; in assay [6], 14.9.

Turning to `NS(=O)(=O)OC[C@@H]1C[C@@H](n2ccc3c(N[C@H]4CCc5ccccc54)ncnc32)C[C@@H]1O` [Pevonedistat], the drug sensitivity score in [1] was determined as 2.51; in [2], 7.25; in assay [3], 0; in assay [4], 17.8; in [5] it was 3.83; in assay [6] it was 5.18.

Regarding `Nc1nc(OCc2cc(Br)cs2)c2[nH]cnc2n1` [Lomeguatrib], the drug sensitivity score in [1], in [2], in assay [3], in [4], in assay [5] and in assay [6] was 0 throughout.
